Consider two molecules from patent US6514997B2, “Antipicornaviral compounds and compositions, their pharmaceutical uses, and materials for their synthesis” (Agouron Pharmaceuticals, Inc., priority 1999, dated 2003).

Test [1] relates to coxsackievirus B2 (CVB2). Kind of test: Anticoxsackieviral cell culture assay (EC50), CVB2. It counts as cell-based. The note with it: Enterovirus B.
For test [2], the system named is Coxsackievirus type B3 (CVB3). Kind of test: Anticoxsackieviral cell culture assay (XTT, EC50), CVB3. It counts as cell-based, coxsackievirus B3 in H1-HeLa cells. On the procedure:
Anticoxsackieviral Cell Culture Assay:
Coxsackievirus types A-21 (CAV-21) and B3 (CVB3) were purchased from American Type Culture Collection (ATCC, Rockville, Md.). Virus stocks were propagated and antiviral assays were performed in H1-HeLa cells (ATCC). Cells were grown in minimal essential medium with 10% fetal bovine serum (Life Technologies, Gaithersburg, Md.). The ability of the compounds of this invention to protect cells against either CAV-21 or CVB3 infection was measured by the XTT dye reduction method. This method is described in Weislow et al., J. Natl. Cancer Inst. (1989), vol. 81, 577-586. H1-HeLa cells were infected with CAV-21 or CVB3 at a multiplicity of infection (m.o.i.) of 0.025 or 0.075, respectively, or mock-infected with medium only. H1-HeLa cells were plated at 4×10^4 cells per well in a 96-well plate and incubated with appropriate concentrations of the test compound. One day (CVB3) or two days (CAV-21) later, XTT/PMS was added to test plates and the amount of formazan produced was quantified spectrophotometrically at 450/650 nm. […] The therapeutic index (TI) was calculated by dividing the CC50 by the EC50.

Test [3] deals with HRV-14. Kind of test: Antirhinoviral H1-HeLa cell culture assay (XTT cell protection, EC50), HRV-14. It counts as cell-based, human rhinovirus (HRV) serotype-14 in H1-HeLa cells. The note with it: Rhinovirus B, HRV14, H1-HeLa. In outline: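 H1-HeLa cells were infected with HRV-14 at m.o.i. 0.13, or mock-infected, and incubated with compound for two days. Cell protection was read by XTT/PMS formazan absorbance at 450/650 nm to give EC50. CC50 came from mock-infected cells, and TI = CC50/EC50.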
For orientation: Tetrazolium assays rely on reduction of a dye to a coloured formazan, in cell work by metabolically active cells.

Test [4] relates to strains of human rhinovirus (HRV). Kind of test: Antirhinoviral H1-HeLa cell culture assay (XTT cell protection, EC50), other HRV strains. It is filed as cell-based, human rhinovirus in H1-HeLa cells. The note with it: read-out: EC50. In outline:
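H1-HeLa cells infected, or mock-infected, were incubated with compounds for two days. Cell protection measured by XTT/PMS formazan absorbance at 450/650 nm; TI taken as CC50 divided by EC50.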

The target in test [5] is T1, Recombinant rhinovirus 3C protease, serotype 14 (Human rhinovirus 14, UniProt P03303).
T1 construct: Recombinant rhinovirus 3C proteases; made in house
T1 sequence (P03303 1538-1719): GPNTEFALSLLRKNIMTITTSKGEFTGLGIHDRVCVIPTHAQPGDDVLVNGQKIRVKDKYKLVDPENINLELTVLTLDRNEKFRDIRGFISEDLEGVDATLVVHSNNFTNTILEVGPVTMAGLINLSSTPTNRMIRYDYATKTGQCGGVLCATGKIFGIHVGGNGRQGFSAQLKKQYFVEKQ
Kind of test: Inhibition of rhinovirus 3C protease (FRET assay, kobs/[I]), serotype 14. It is filed as biochemical. The note with it: pH 7.6; HRV-14; read-out: kobs/[I] (3C protease inhibition activity). In outline:
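Enzyme-start FRET assay with ~1 μM DABCYL/EDANS peptide substrate and 50-100 nM recombinant protease in 50 mM tris pH 7.6, 1 mM EDTA, 2% DMSO. Cleavage followed as fluorescence increase; kobs/[I] derived from progress curves.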

The mark [6] stands for this setting: Human rhinovirus sp., HRV3, H1-HeLa, HRV-3.
Where [7] appears, read: Human rhinovirus sp., HRV9, H1-HeLa, HRV-9.
[8] abbreviates: Human rhinovirus sp., HRV16, H1-HeLa, HRV-16.
[9] abbreviates: Human rhinovirus sp., HRV25, H1-HeLa, HRV-25.
The mark [10] stands for this setting: Human rhinovirus sp., HRV39, H1-HeLa, HRV-39.

The structures appear in SMILES notation. Like-named read-outs stand apart in the source and are kept apart here.

Broadly, the EC50 is the concentration giving half of the maximal effect. With `C#CC[C@@H](C(=O)N[C@H](/C=C/C(=O)OC(C)(C)C)C[C@@H]1CCNC1=O)n1cccc(NC(=O)c2cc(C)on2)c1=O` [Compound 41, trans-(2′S,3′″″S,4S)-4-[2′-(3″-{[1′″-(5″″-Methylisoxazol-3″″-yl)methanoyl]amino}-2′″-oxo-2′″H-pyridin-1′″-yl)pent-4″-ynoylamino]-5-(2′″″-oxopyrrolidin-3′″″-yl)pent-2-enoic Acid tert-Butyl Ester], the EC50 in test [1] was 213 nM; in test [2], 117 nM; in test [3] it was 62 nM; in test [4] (H1-HeLa, HRV-2) it was 155 nM; in test [4] (setting [6]), 54 nM; in test [4] (setting [7]) it was 562 nM. In addition, the EC50 in test [4] (setting [8]) was 416 nM; in test [4] (setting [9]), 829 nM; in test [4] (setting [10]), 445 nM; in test [4] (Human rhinovirus sp., HRV87, H1-HeLa, HRV-87) it was 60 nM. In addition, in test [5], the kinact/KI is 60500 M⁻¹ s⁻¹.

`C#CC[C@@H](C(=O)N[C@H](/C=C/C(=O)OC1CCC1)C[C@@H]1CCNC1=O)n1cccc(NC(=O)c2cc(C)on2)c1=O` [Compound 53, trans-(2′S,3′″″S,4S)-4-[2′-(3″-{[1′″-(5″″-Methylisoxazol-3″″-yl)methanoyl]amino}-2′″-oxo-2′″H-pyridin-1′″-yl)pent-4″-ynoylamino]-5-(2′″″-oxopyrrolidin-3′″″-yl)pent-2-enoic Acid Cyclobutyl Ester]: the EC50 turned out to be 154 nM in test [1]; 156 nM in test [2]; 40 nM in test [3]; 128 nM in test [4] (H1-HeLa, HRV-1A); 78 nM in test [4] (H1-HeLa, HRV-2); 45 nM in test [4] (H1-HeLa, HRV-23). In addition, the EC50 in test [4] (Human rhinovirus sp., H1-HeLa, HRV-Hanks) came out at 137 nM; in test [4] (setting [6]), 44 nM; in test [4] (setting [7]), 133 nM; in test [4] (Human rhinovirus sp., HRV10, H1-HeLa, HRV-10) it was 37 nM; in test [4] (Human rhinovirus sp., HRV11, H1-HeLa, HRV-11), 20 nM; in test [4] (Human rhinovirus sp., HRV13, H1-HeLa, HRV-13) it was 157 nM. For the same molecule, the EC50 is 102 nM in test [4] (setting [8]); 53 nM in test [4] (Human rhinovirus sp., HRV19, H1-HeLa, HRV-19); 66 nM in test [4] (setting [9]); 125 nM in test [4] (setting [10]); 40 nM in test [4] (Human rhinovirus sp., HRV78, H1-HeLa, HRV-78). Moreover, the kinact/KI in test [5] came out at 207000 M⁻¹ s⁻¹.
